The values that follow come from US9873667B2, “Arylsulfanyl compounds and compositions for delivering active agents” (EMISPHERE TECHNOLOGIES INC., priority 2006, dated 2018).

A short description of data set [1]: Oral delivery of LHRH with delivery agent; plasma LHRH concentration. In kind it is in vivo, male Sprague-Dawley rats. The following applies: Delivery Agent: 200 mg/kg, LHRH: 1 mg/kg. The procedure:
Oral gavage dosing solutions of delivery agent compound and LHRH in phosphate buffer were prepared by mixing. A solution of the delivery agent compound was made either with the sodium salt of the delivery agent compound or by converting the free acid to its sodium salt. A solution of the delivery agent compound was prepared in phosphate buffer and stirred, adding one equivalent of sodium hydroxide (1.0 N) when making the sodium salt. The final dosing solutions were prepared by mixing the delivery agent compound solution with a LHRH stock solution (2.75 ml with a concentration of 20 mg/ml in aqueous solution). The pH was adjusted, if necessary, to between about 7 and 8.8.
(§1) Male Sprague-Dawley rats weighing between about 250-300 g were fasted for 24 hours. A dosing group of five animals was administered one of the dosing solutions. An 11 cm Rusch 8 French catheter was adapted to a 1 ml syringe with a pipette tip. The syringe was filled with the dosing solution by drawing the solution through the catheter, which was then wiped dry. The catheter was placed down the esophagus leaving 1 cm of tubing past the incisors. The dosing solution was administered by pressing the syringe plunger.
Blood samples were collected through retroorbital bleeding of approximately 0.4 ml of blood volume using EDTA tubes at time=0 (pre-dose), 2, 10, 15 and 30 minutes. The five samples from each time period were pooled. Previous studies indicated baseline values of about zero. The maximum absorption at the Tmax is reported below in Table 7. As controls, 4-(3-methyl phenoxy) butyric acid (D.A. “B”), the mesylate salt of (4-(8-(2-hydroxyphenoxy)octyl) morpholine (D.A. “C”), 4-(4-(2-hydroxyphenoxy)butyl) morpholine (D.A. “D”), and 4-(6-(2-hydroxyphenoxy)hexyl) morpholine (D.A. “E”) were also administered according to the same protocol and their results are also shown in FIG. 6.

Data set [2] concerns activated partial thromboplastin time (APTT). Description: Intracolonic delivery of heparin with delivery agent; clotting time (APTT). It is filed as in vivo, male Sprague-Dawley rats. The following applies: Delivery Agent 50 mg/kg, USP Heparin 25 mg/kg. The protocol:
Oral gavage and/or intracolonic (IC) dosing solutions containing delivery agent compound and heparin sodium USP were prepared in 25% aqueous propylene glycol. Either the sodium salt of the delivery agent compound was used or the free acid was converted to the sodium salt with one equivalent of sodium hydroxide. The delivery agent compound and heparin (about 166-182 IU/mg) were mixed by vortex as dry powders. This dry mixture was dissolved in 25% v/v aqueous propylene glycol, vortexed, and placed in a sonicator (about 37° C.). The pH was adjusted to about 7 (6.5-8.5) with aqueous NaOH (2N). The dosing solution was sonicated to produce a clear solution. The final volume was adjusted to about 3.0 ml.
as §1, with “about 275-350” for “about 250-300”, “24 hours and anesthetized with ketamine hydrochloride (88 mg/kg) intramuscularly immediately prior to dosing and again as needed to maintain anesthesia.” for “24 hours.”, “animals were” for “animals was”, “solutions. For oral gavage dosing, an” for “solutions. An”, “with” for “with the”
For intracolonic (IC) dosing, a 7.5 cm, 8 French Rusch catheter was adapted to a 1 ml syringe with a pipette tip. The dosing catheter was inserted into the colon through the anus until the tube was no longer visible. The dosing solution was expressed slowly into the colon by pressing the syringe plunger.
Citrated blood samples were collected by cardiac puncture following the administration of ketamine (88 mg/kg), typically at 0.25, 0.5, 1.0 and 1.5 hours after dosing. Heparin absorption was verified by an increase in clotting time measured by the activated partial thromboplastin time (APTT) according to the method of Henry, J. B., Clinical Diagnosis and Management by Laboratory Methods, Philadelphia, Pa., W.B. Saunders (1979), which is hereby incorporated by reference. Previous studies indicated baseline values of about 20 seconds. Results from the animals in each group were averaged for each time points and the highest of these averages (i.e. mean peak APTT) is reported.

The subject of a further data set is Blood glucose levels. Briefly: Oral delivery of insulin with delivery agent compound; blood glucose by glucometer. In kind it is in vivo, male Sprague-Dawley rats. The protocol:
Insulin stock solution (15 mg/ml) (Human zinc insulin, Calbiochem-Novabiochem Corp., La Jolla, Calif.) was prepared with deionized water. Oral dosing compositions containing 200 mg/kg of delivery agent compound and 0.5 mg/kg of insulin in aqueous solution were prepared with the delivery agent compound shown in Table 1 below. Either the sodium salt of the delivery agent compound was used or the free acid was converted to the sodium salt with one equivalent of sodium hydroxide.
The dosing solution was administered to fasted male Sprague-Dawley rats by oral gavage with an average weight of about 225-250 grams. Blood glucose levels were then determined by glucometer (One Touch Ultra®, LifeScan, Inc.) and compared to vehicle control (1 ml/kg of water). Samples were collected prior to dosing (time 0) and at 15, 30, 45 and 60 minutes after dosing. The % glucose reduction values in Table 1 are values found at the C minimum, and are an average % reduction with respect to the number of times the experiment was run for each delivery agent.
0.5 mg/kg of Insulin and 25-100 mg/kg of delivery agent compound (particular amount shown in Table 2 below) was administered to male Sprague-Dawley rats with an average weight of about 225-250 grams. The purpose of this test was to ascertain the dose response of the delivery agent compound. Glucose reduction was determined as set forth in connection with the data in Table 1.
Insulin Titrations were performed with Delivery Agent 29 in order to gauge the effect of varying dosages of insulin.

Data set [3] can be described thus: Oral delivery of heparin with delivery agent; plasma heparin concentration. It is filed as in vivo, male Sprague-Dawley rats. The following applies: Delivery Agent 200 mg/kg, Heparin 80 mg/kg.
The nature of data set [4]: Oral delivery of caspofungin acetate with delivery agent; plasma caspofungin acetate concentration. It is filed as in vivo, male Sprague-Dawley rats. The following applies: Delivery Agent 200 mg/kg, caspofungin acetate: 25 mg/kg. The protocol: Oral gavage dosing solutions of delivery agent compound and caspofungin acetate (Merck & Co., Whitehouse Station, N.J.) in phosphate buffer were prepared by mixing. A solution of the delivery agent compound was made either with the sodium salt of the delivery agent compound or by converting the free acid to its sodium salt. A solution of the delivery agent compound was prepared in phosphate buffer and stirred, adding one equivalent of sodium hydroxide (1.0 N) when making the sodium salt. The final dosing solutions were prepared by mixing the delivery agent compound solution with a caspofungin acetate stock solution (2.5 ml with a concentration of 100 mg/ml in aqueous solution). The pH was adjusted, if necessary, to between about 7 and 8.8. Male Sprague-Dawley rats weighing between about 250-300 g were fasted for 24 hours. A dosing group of five animals was administered one of the dosing solutions. An 11 cm Rusch 8 French catheter was adapted to a 1 ml syringe with a pipette tip. The syringe was filled with the dosing solution by drawing the solution through the catheter, which was then wiped dry. The catheter was placed down the esophagus leaving 1 cm of tubing past the incisors. The dosing solution was administered by pressing the syringe plunger. Blood samples were collected through retroorbital bleeding at time=0 (pre-dose), 15, 30, 60, 240, and 480 minutes. […]

The mark [5] stands for this setting: oral gavage, 200 mg/kg Delivery Agent Compound, 0.5 mg/kg Insulin, value at C minimum vs vehicle control.
The mark [6] stands for this setting: dose response, Delivery Agent Compound 50 mg/kg, Insulin 0.5 mg/kg.
Where [7] appears, read: dose response, Delivery Agent Compound 100 mg/kg, Insulin 0.5 mg/kg.

The molecule `COc1ccccc1SCCCCCCCC(=O)O` [Compound 1, 8-(2-Methoxy-phenylsulfanyl)-octanoic acid] gave a melting point of 62 to 63 °C. Also, in data set [1], the Tmax turned out to be 5 min. The “APTT (mean peak)” value in data set [2] was determined as 180 s. In data set [2] (time of peak APTT), the time of peak concentration (Tmax) was found to be 30 min. Also, the “% Glucose Reduction” value with Blood glucose levels (setting [5]) is reported as −0.2%.

On to `Cc1ccc(C)c(SCCCCCCCC(=O)O)c1` [Compound 2, 8-(2,5-Dimethyl-phenylsulfanyl)-octanoic acid], for which the melting point lay in the range of 60 to 63 °C. Moreover, in data set [3], the Tmax amounted to 45 min. Besides, the “% Glucose Reduction” value in the data set with Blood glucose levels (dose response, Delivery Agent Compound 25 mg/kg, Insulin 0.5 mg/kg) is −10.0%.

In turn, `COc1ccccc1SCCCCCCCCCC(=O)O` [Compound 4, 10-(2-Methoxy-phenylsulfanyl)-decanoic acid] displayed a melting point of 65 to 66 °C. Also, the Tmax in data set [1] came out at 5 min.

With `O=C(O)CCCCCCCSc1ccccc1O` [Compound 5, 8-(2-Hydroxy-phenylsulfanyl)-octanoic acid], the melting point was 49 to 50 °C. Further, the Tmax in data set [1] was 5 min. Also, the “% Glucose Reduction” value in the data set on Blood glucose levels (setting [6]) is −13.5%. For the same molecule, the “% Glucose Reduction” value with Blood glucose levels (setting [7]) was −18.2%.

Molecule `Cc1ccc(C)c(SCCCCCC(=O)O)c1` [Compound 6, 6-(2,5-Dimethyl-phenylsulfanyl)-hexanoic acid] yielded a melting point of 61 to 62 °C. The Tmax in data set [3] is 15 min. Also, in data set [1], the Tmax came out at 5 min. In addition, the “% Glucose Reduction” value in the data set with Blood glucose levels (setting [6]) is −15.8%. The “% Glucose Reduction” value with Blood glucose levels (setting [7]) is −19.2%. Moreover, in the data set with Blood glucose levels (setting [5]), the “% Glucose Reduction” value is reported as −9.8 ± 30.4%.

The molecule `Cc1ccc(C)c(SCCCC(=O)O)c1` [Compound 7, 4-(2,5-Dimethyl-phenylsulfanyl)-butyric acid] registered a melting point of 61 to 62 °C. Further, the time of peak concentration (Tmax) in data set [3] was found to be 60 min. Besides, the Tmax in data set [1] came out at 5 min.

Consider `COc1ccc(SCCCCC(=O)O)cc1` [Compound 14, 5-(4-Methoxy-phenylsulfanyl)-pentanoic acid], for which, in data set [4], the Tmax was determined as 60 min.
